Laboratory results taken from article PMC7486275 (Nature, 2020).
Read-outs that look alike come from different tables or passages of the source. Peptide text beside a SMILES is read from it. * marks the point of attachment. Cbz = O=C(OCc1ccccc1)*

Tests used:
CDK12-cycK and DDB1 = CDK12-cycK and DDB1 (Homo sapiens, UniProt Q16531+Q9NYV4, K965R); assay: TR-FRET titration of CDK12-Alexa488cycK to terbiumDDB1; conditions: vs basal binding in DMSO
[1] = biological target: CDK12-cycK complex by RBX1N8CUL4-DDB1 (Homo sapiens, UniProt Q16531+Q9NYV4, K965R); assay: In vitro ubiquitination assay; type: biochemical; conditions: 2 μM compound
Chain of CDK12-cycK complex by RBX1N8CUL4-DDB1 (Q15843 1-76): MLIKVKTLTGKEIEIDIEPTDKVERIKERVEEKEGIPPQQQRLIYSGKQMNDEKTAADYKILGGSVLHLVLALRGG
Chain of CDK12-cycK complex by RBX1N8CUL4-DDB1 (Q16531 whole entry): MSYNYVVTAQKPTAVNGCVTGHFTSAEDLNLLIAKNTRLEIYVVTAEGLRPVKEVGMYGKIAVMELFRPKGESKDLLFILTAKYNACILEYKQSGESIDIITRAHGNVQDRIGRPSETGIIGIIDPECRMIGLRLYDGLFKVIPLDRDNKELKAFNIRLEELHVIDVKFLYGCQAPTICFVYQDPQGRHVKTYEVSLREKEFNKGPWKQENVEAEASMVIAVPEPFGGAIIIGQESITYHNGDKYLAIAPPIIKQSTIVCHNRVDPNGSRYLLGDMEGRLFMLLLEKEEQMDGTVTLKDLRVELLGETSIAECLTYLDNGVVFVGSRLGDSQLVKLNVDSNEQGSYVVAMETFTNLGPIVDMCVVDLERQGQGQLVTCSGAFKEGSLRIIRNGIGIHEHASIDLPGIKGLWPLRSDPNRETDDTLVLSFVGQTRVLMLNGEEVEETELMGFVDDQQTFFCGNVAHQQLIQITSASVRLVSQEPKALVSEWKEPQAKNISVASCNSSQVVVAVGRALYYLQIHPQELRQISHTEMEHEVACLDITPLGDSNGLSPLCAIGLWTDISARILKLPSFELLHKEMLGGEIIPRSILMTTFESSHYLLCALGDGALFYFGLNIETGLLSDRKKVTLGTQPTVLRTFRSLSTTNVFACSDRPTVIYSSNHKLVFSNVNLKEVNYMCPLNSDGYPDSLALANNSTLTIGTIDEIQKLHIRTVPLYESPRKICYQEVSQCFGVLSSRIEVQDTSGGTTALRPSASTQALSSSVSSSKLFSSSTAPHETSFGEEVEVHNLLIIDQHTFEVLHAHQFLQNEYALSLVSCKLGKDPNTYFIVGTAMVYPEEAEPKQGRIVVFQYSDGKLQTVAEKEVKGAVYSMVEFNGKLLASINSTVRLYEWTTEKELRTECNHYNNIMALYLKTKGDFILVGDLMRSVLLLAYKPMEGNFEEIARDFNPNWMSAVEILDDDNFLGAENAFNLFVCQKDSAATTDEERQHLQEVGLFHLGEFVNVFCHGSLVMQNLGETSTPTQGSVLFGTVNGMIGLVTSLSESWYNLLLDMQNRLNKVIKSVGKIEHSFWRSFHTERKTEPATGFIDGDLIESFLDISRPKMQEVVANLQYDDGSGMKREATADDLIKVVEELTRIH
Chain of CDK12-cycK complex by RBX1N8CUL4-DDB1 (Q9NYV4 713-1052 K965R): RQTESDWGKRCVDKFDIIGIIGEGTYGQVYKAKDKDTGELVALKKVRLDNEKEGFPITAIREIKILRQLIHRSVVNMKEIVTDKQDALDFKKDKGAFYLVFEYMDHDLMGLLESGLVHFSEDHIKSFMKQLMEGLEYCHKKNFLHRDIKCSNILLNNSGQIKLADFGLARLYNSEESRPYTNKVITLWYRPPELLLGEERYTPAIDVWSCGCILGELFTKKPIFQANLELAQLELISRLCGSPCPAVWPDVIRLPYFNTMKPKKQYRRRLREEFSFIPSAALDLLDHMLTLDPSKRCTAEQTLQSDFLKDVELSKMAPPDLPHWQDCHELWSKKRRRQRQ
Chain of CDK12-cycK complex by RBX1N8CUL4-DDB1 (P62877 whole entry, further chain): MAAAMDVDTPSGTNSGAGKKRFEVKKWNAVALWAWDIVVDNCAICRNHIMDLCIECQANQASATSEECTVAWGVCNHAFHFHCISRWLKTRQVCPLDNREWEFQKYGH
Chain of CDK12-cycK complex by RBX1N8CUL4-DDB1 (O75909 1-267, further chain): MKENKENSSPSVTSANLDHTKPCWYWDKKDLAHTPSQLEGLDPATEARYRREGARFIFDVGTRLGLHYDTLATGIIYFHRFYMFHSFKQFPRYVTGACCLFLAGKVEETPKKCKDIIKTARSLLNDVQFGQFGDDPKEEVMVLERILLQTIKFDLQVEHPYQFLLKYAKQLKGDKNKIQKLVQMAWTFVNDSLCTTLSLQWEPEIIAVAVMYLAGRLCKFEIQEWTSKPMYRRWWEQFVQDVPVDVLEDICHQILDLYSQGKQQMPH
Chain of CDK12-cycK complex by RBX1N8CUL4-DDB1 (Q13619 whole entry, further chain): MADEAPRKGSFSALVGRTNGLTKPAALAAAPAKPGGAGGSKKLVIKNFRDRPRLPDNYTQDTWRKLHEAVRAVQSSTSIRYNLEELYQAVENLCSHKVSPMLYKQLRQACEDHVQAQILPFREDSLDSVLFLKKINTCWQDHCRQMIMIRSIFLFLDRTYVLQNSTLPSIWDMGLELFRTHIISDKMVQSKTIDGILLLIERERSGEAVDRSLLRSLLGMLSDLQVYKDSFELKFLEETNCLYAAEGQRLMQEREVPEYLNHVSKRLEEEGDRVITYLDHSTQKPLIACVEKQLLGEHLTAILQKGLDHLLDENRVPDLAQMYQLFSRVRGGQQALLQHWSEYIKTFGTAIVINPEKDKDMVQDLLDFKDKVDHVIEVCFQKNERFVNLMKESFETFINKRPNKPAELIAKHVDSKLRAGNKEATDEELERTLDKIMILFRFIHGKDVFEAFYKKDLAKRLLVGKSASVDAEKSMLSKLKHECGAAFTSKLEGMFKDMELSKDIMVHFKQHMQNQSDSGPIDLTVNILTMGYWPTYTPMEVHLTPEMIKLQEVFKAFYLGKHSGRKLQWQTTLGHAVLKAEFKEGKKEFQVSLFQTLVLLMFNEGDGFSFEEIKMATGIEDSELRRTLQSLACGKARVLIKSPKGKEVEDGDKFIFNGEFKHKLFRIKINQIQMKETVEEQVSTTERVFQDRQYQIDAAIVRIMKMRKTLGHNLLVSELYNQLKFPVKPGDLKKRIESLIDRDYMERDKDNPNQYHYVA

[2] = tested on: CycK in HEK293TCas9 cells; assay: Immunoblots of CycK degradation; type: cell-based, human; conditions: pre-treated with 0.5 μM MLN7243, 1 μM MLN4924 or 10 μM MG132 for 4 hours, then 1 μM CR8 for 2 hours
[3] = tested on: K562Cas9, OVK16Cas9, A564Cas9, ES2Cas9 and MOLM13Cas9 cell lines; assay: Validation of drug-E3 ligase pairs; type: cell-based; conditions: flow-based validation, 3 days
HEK293TCas9 cells = conditions: 3 days
[4] = biological target: cycKeGFP in HEK293TCas9 cells (Homo sapiens, UniProt Q16531+Q9NYV4); type: cell-based

Chain of CDK12-cycK and DDB1 (Q9NYV4 713-1052 K965R): as the sequence (Q9NYV4 713-1052 K965R) above
Chain of CDK12-cycK and DDB1 (O75909 1-267, further chain): as the sequence (O75909 1-267, further chain) above
Chain of CDK12-cycK and DDB1 (Q16531 whole entry): as the sequence (Q16531 whole entry) above

Question: For `CN(C)C/C=C/C(=O)Nc1ccc(C(=O)N2CCC[C@@H](Nc3ncc(Cl)c(-c4c[nH]c5ccccc45)n3)C2)cc1` [THZ531], which “effect on CDK12-cycK interaction with DDB1 (TR-FRET signal)” value (“effect on CDK12-cycK interaction” below) (CDK12-cycK and DDB1) is on record?
Answer: further decreased the TR-FRET signal

Question: What about the “cycK ubiquitination in vitro” value [1] of the same compound?
Answer: diminished cycK ubiquitination in vitro below DMSO control levels

Question: How did the “rescue of CR8-induced cycK degradation” value [2] turn out when `CC(C)C[C@@H](C=O)NC(=O)[C@H](CC(C)C)NC(=O)[C@H](CC(C)C)NC(=O)OCc1ccccc1` [MG132] (Cbz-Leu-Leu-Leu-aldehyde) was run?
Answer: rescued

Question: Which “effect of sgRNAs targeting DCAF15 on drug-induced toxicity” value [3] does the source give for `O=C(NS(=O)(=O)c1ccc(Br)s1)c1ccc(Cl)cc1Cl` [tasisulam] here?
Answer: confer resistance

Question: With `NS(=O)(=O)c1ccc(S(=O)(=O)Nc2cccc3c(Cl)c[nH]c23)cc1` [indisulam] as the compound, how does the “effect of sgRNAs targeting DCAF15 on drug-induced toxicity” value [3] read?
Answer: confer resistance

Question: For `NS(=O)(=O)OC[C@@H]1C[C@@H](n2ccc3c(N[C@H]4CCc5ccccc54)ncnc32)C[C@@H]1O` [MLN4924], which “rescue of CR8-induced cycK degradation” value [2] is on record?
Answer: rescued

Question: And the “effect on cell viability” value (HEK293TCas9 cells)?
Answer: only minor effects on cell viability

Question: `CC[C@H](CO)Nc1nc(NCc2ccccc2)c2ncn(C(C)C)c2n1` [Roscovitine] was tested. Which “cycK ubiquitination in vitro” value [1] did it give?
Answer: less processive ubiquitination

Question: And the “degradation of the cycKeGFP reporter in cells” value [4]?
Answer: neither DRF053 nor roscovitine induced degradation

Question: `Nc1ncnc2c1ncn2[C@@H]1O[C@H](COP(=O)(O)OP(=O)(O)OP(=O)(O)O)[C@@H](O)[C@H]1O` [ATP] was tested. Which “effect on CDK12-cycK interaction” value (CDK12-cycK and DDB1) did it give?
Answer: neither facilitated nor abrogated the interaction

Question: Which “rescue of CR8-induced cycK degradation” value [2] does the source give for `NS(=O)(=O)OC[C@H]1C[C@@H](Nc2ccnc3cc(-c4cccc(SC(F)(F)F)c4)nn23)[C@H](O)[C@@H]1O` [MLN7243] here?
Answer: rescued

Question: `CN1CC[C@H](c2c(O)cc(O)c3c(=O)cc(-c4ccccc4Cl)oc23)[C@H](O)C1` [Flavopiridol] was tested. Which “effect on CDK12-cycK interaction” value (CDK12-cycK and DDB1) did it give?
Answer: stimulated the binding of CDK12-cycK to DDB1

Question: What about the “cycK ubiquitination in vitro” value [1] of the same compound?
Answer: moderate cycK ubiquitination

Question: What about the “degradation of the cycKeGFP reporter in cells” value ([4]; HEK293TCas9 cells, 1 μM compound, 2 hours) of the same compound?
Answer: failed to degrade cycK in cells
